Measurements published in patent US7235649B2, “Isolated GRP94 ligand binding domain polypeptide and nucleic acid encoding same, and screening methods employing same” (Duke University, priority 2000, dated 2007).

Key:
GRP94 [1] = molecular target: T1, GRP94 (Sus scrofa, UniProt Q29092); test: Tryptophan fluorescence (ligand-induced conformational change); details: 50 μM NECA, 50 μM geldanamycin, 2.5 mM ATP or 2.5 mM ADP, 1 hour at 37° C.
Experimental: Tryptophan Fluorescence. Tryptophan fluorescence measurements were conducted in a FLUOROMAX™ spectrofluorometer (Spex Industries, Inc. of Edison, N.J.) with the slit widths set to 1 nm for both excitation and emission. […] All spectra were corrected by subtraction of buffer or buffer plus ligand samples. […] Samples were then cooled to room temperature, transferred to a quartz cuvette, and the spectra collected.

casein kinase II = casein kinase II (Homo sapiens, UniProt P68400); test: Casein kinase II assay with casein; format: biochemical; details: 180 μM NECA or 180 μM radicicol in 3.6% DMSO, 5 μg/ml heparin, 5 mM GTP; 4 μM casein
Experimental: (§1) Phosphorylation Assays. […] For the casein kinase assay, 1 unit of casein kinase 11 was incubated as described above, with the addition of 4 μM casein. […] The 25 μl reaction mixtures were incubated at 37° C. for 1 hour and quenched by addition of 10% trichloroacetic acid. Samples were analyzed by 10% SDS-PAGE gels and the phosphorylated species were quantitated using a Fuji MACBAS1000™ phosphorimaging system (Fuji Medical Systems of Stamford, Conn.).

BiP = test: [3H]-NECA binding assay (vacuum filtration); set-up: species or system porcine; details: 20 nM [3H]-NECA, 60 min on ice
Experimental: BiP was purified by the following procedure. A lumenal protein fraction obtained from porcine pancreas rough microsomes was cycled overnight through a 1 ml ADP-agarose and a 1 ml ATP-agarose (Sigma Chemical Co. of St. Louis, Mo.) column coupled in series. […] The BiP containing fractions were identified by SDS-PAGE, and dialyzed against 2×4 L of buffer A (110 mM KOAc, 20 mM NaCl, 25 mM K-Hepes, pH 7.2, 2 mM Mg(OAc)2 0.1 mM CaCl2). The protein sample was then applied to a SUPERDEX® 26/60 column (Amersham Pharmacia Biotech of Piscataway, N.J.) equilibrated in buffer A, and the BiP containing fractions, again identified by SDS-PAGE, were pooled and concentrated by centrifugal ultrafiltration (CENTRICON-30®; Amicon of Beverly, Mass.).
[^3H]-NECA Binding Assay.
In similar experiments, [^3H]-NECA binding to Hsp90 was evaluated in the presence of molybdate and NP-40, which are known to stabilize the Hsp90 conformation associated with ATP binding, as described by Sullivan et al. (1997).

GRP94 [2] = molecular target: T1, GRP94; test: GRP94 autophosphorylation assay; format: biochemical, porcine; set-up: GRP94 was purified from porcine pancreas rough microsomes; from tissue; host or cells: porcine pancreas rough microsomes; details: 180 μM NECA or 180 μM radicicol in 3.6% DMSO, 5 μg/ml heparin, 5 mM GTP; 1 hour 37° C.
Experimental: as §1

GRP94 [3] = molecular target: T1, GRP94; test: [3H]-NECA binding assay (vacuum filtration); set-up: GRP94 was purified from porcine pancreas rough microsomes; from tissue; host or cells: porcine pancreas rough microsomes; species or system porcine
GRP94 [4] = molecular target: T1, GRP94; test: Isothermal titration calorimetry; format: binding, porcine; set-up: GRP94 was purified from porcine pancreas rough microsomes; from tissue; host or cells: porcine pancreas rough microsomes; details: 5 μM GRP94, 152 μM NECA stock, 25° C.
Experimental: Isothermal calorimetry experiments were performed at 25° C. using a MSC calorimeter (MicroCal Inc. of Northampton, Mass.). […] Necessary corrections were made by subtracting the heats of dilution resulting from buffer addition to protein solution and ligand solution into buffer.

GRP94 [5] = molecular target: T1, GRP94; test: [3H]-NECA competitive displacement assay; format: binding, porcine; set-up: GRP94 was purified from porcine pancreas rough microsomes; from tissue; host or cells: porcine pancreas rough microsomes; details: 10 mM Mg(OAc)2 vs nominal endogenous magnesium

T1 sequence (Q29092 22-804): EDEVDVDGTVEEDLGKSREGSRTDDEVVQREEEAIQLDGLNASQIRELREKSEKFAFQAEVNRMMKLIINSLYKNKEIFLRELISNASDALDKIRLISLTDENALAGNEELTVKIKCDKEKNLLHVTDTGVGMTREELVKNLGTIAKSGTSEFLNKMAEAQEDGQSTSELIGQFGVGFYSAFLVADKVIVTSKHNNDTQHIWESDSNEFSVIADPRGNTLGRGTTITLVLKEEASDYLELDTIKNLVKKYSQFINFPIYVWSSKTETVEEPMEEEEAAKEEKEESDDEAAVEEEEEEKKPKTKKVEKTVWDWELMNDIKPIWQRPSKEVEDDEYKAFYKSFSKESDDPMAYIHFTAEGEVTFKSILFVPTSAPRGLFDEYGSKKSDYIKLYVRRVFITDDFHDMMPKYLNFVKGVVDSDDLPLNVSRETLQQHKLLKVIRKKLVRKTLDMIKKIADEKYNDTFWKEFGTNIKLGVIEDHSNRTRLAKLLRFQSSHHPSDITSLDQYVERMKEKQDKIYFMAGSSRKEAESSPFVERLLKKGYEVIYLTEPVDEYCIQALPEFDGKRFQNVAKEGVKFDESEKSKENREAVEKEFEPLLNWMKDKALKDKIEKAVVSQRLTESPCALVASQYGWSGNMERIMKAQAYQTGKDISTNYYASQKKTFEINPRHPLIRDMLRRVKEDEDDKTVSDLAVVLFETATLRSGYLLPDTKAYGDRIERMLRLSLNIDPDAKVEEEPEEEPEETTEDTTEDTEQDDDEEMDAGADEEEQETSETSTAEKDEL
casein kinase II, sequence (P68400 whole entry): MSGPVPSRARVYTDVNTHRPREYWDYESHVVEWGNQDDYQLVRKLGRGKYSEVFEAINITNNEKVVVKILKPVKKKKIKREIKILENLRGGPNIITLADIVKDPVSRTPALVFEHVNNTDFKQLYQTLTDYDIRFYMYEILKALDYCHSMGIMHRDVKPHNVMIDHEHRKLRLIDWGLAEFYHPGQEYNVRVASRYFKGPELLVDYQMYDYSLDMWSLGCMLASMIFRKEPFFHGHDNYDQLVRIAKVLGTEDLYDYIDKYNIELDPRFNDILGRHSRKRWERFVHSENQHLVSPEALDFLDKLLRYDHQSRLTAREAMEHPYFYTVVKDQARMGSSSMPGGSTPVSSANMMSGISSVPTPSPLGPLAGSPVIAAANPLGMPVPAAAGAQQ
casein kinase II, sequence (P67870 whole entry partner): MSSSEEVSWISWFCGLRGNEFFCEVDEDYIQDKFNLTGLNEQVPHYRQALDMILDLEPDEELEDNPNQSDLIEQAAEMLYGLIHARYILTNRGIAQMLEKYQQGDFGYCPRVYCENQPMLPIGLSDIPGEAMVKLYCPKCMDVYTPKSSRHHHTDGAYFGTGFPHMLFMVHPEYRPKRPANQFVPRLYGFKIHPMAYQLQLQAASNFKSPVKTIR

SMILES: CCNC(=O)[C@H]1O[C@@H](n2cnc3c(N)ncnc32)[C@H](O)[C@@H]1O [NECA, N-ethylcarboxamidoadenosine]
- change of GRP94 tryptophan fluorescence (GRP94 [1]): increased the tryptophan fluorescence
- effect on casein kinase II activity (casein kinase II): neither NECA nor radicicol, both of which bind to the N-terminal nucleotide binding domain of GRP94, significantly inhibit GRP94 derived or casein kinase II activity
- [3H]-NECA binding to BiP (BiP): not observed
- effect on GRP94 autophosphorylation activity (GRP94 [2]): does not significantly inhibit GRP94 autophosphorylation activity
- [3H]-NECA binding activity of GRP94 (GRP94 [3]; 20 nM [3H]-NECA, 60 min on ice): readily detectable
- stoichiometry of NECA bound to GRP94 at saturation (summary) (GRP94 [3]; ligand binding studies and isothermal titration calorimetry): 1 mol NECA:mol GRP94 dimer
- Hill plot slope of [3H]-NECA binding (GRP94 [3]; saturation binding): 1.2
- binding stoichiometry of [3H]-NECA (GRP94 [3]; saturation binding): 0.5 mol [^3H]-NECA/mol GRP94 monomer
- maximal binding stoichiometry of NECA (GRP94 [3]; saturation curve, FIG. 9B): 1 molecule of NECA per molecule of GRP94 dimer
- binding stoichiometry of NECA by isothermal titration calorimetry (GRP94 [4]): 1.1 mol NECA/mol GRP94 dimer
- effect of excess Mg2+ on binding to GRP94 (GRP94 [5]): without effect
